We go through 13 compounds from ChEMBL document CHEMBL1201862, “PubChem BioAssay data set” (2004).

What all share (assay): inhibition of tumour cell growth, NCI panel, 48 h
For assay [1], the system named is 786-0.
For assay [2], the system named is A549.
The subject of assay [3] is BT-549.
For assay [4], the system named is COLO 205.
For assay [5], the system named is EKVX.
Assay [6] has as its system HOP-62.
Assay [7] deals with HOP-92.
In assay [8] the test system is K562.
The subject of assay [9] is LOX IMVI.
In assay [10] the test system is MDA-N.
The subject of assay [11] is NCI-H23.
The subject of assay [12] is OVCAR-5.
Assay [13] relates to OVCAR-8.
Assay [14] concerns RPMI-8226.
In assay [15] the test system is SK-MEL-2.
Assay [16] deals with SN12C.
The test system of assay [17] is SW-620.
Assay [18] concerns DU-145.

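48-hour exposure; five concentrations; linearly interpolated endpoints. GI50 is the concentration that inhibits growth by half.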 Calls of active or inactive are those of the source. Cut-off read from the data, not from the text of the source: active = GI50 up to about 1.1 µM and inactive = higher.

In the case of `CC(=O)C(C(=O)c1ccc(C)cc1)[C@H]1OC(C)(C)O[C@H]1[C@H]1COC(C)(C)O1` (some centres not stated), the GI50 in assay [1] is 2.88 µM (inactive); in [2], 11.2 µM (inactive); in assay [3], 6.3 µM (inactive); in assay [4], 10.3 µM (inactive); in [5] it was 5.32 µM (inactive); in [6], 6.12 µM (inactive). For the same compound, the GI50 in assay [7] is 7.98 µM (inactive); in assay [8], 1.78 µM (inactive); in [9] it was 2.06 µM (inactive); in assay [10], 1.85 µM (inactive); in assay [11], 2.07 µM (inactive); in [12], 8.39 µM (inactive). Moreover, the GI50 in [13] is 1.9 µM (inactive); in assay [14], 1.6 µM (inactive); in assay [15], 2.92 µM (inactive); in assay [16], 1.9 µM (inactive); in assay [17], 1.84 µM (inactive).
`Cc1cc(C)c2nccc(NCCCN(C)C)c2c1[N+](=O)[O-]`: the GI50 in assay [1] is 36.2 µM (inactive); in assay [2], 30.8 µM (inactive); in assay [3], 35.5 µM (inactive); in assay [4], 14.8 µM (inactive); in [18], 44.2 µM (inactive); in assay [5], 64 µM (inactive). The GI50 in assay [6] was 47.9 µM (inactive); in [8], 31 µM (inactive); in assay [9], 18.6 µM (inactive); in assay [10] it was 38.8 µM (inactive); in assay [11] it was 19.2 µM (inactive); in assay [12], 44 µM (inactive). The GI50 was 37.6 µM (inactive) in assay [13]; 34.6 µM (inactive) in assay [14]; 23.8 µM (inactive) in [15]; 40.9 µM (inactive) in [16]; 26.9 µM (inactive) in [17].
`CCN(CC)CCOc1ccccc1/C=C/c1noc2ccccc12`: the GI50 was 13.6 µM (inactive) in assay [1]; 16.3 µM (inactive) in assay [3]; 6.21 µM (inactive) in assay [4]; 15.7 µM (inactive) in assay [18]; 15.2 µM (inactive) in [5]; 14.4 µM (inactive) in [6]. Moreover, the GI50 was 9.29 µM (inactive) in assay [8]; 11.8 µM (inactive) in assay [10]; 13.9 µM (inactive) in assay [11]; 12.5 µM (inactive) in assay [12]; 12.2 µM (inactive) in assay [13]; 0.736 µM (active) in assay [15]. Besides, the GI50 is 11.5 µM (inactive) in assay [16] and 10.2 µM (inactive) in [17].
With `C[N+](C)(C)c1ncnc2c1ncn2C1CCCO1` (configuration not stated), the GI50 in [1], in [2], in assay [3], in [4], in assay [18] and in assay [5] was > 100 µM (inactive) each time. Besides, the GI50 in assay [6], in assay [7], in assay [8], in assay [10], in assay [11] and in assay [12] was > 100 µM (inactive) each time. Moreover, the GI50 in [13], in assay [14], in [15], in assay [16] and in assay [17] was > 100 µM (inactive) throughout.
Regarding `C/C=C\C(CC(=O)NCCc1c[nH]c2ccccc12)CC(=O)OC` (configuration not stated), the GI50 in assay [1], in assay [2], in assay [3], in [4], in assay [18] and in assay [5] was > 100 µM (inactive) throughout. The GI50 in assay [6], in assay [7], in [8], in assay [10], in [11] and in assay [12] was > 100 µM (inactive) in each case. For the same compound, the GI50 in assay [13], in assay [14], in assay [15] and in assay [17] was > 100 µM (inactive) each time.
On to `C=CCN(c1cc(OC)c(NC(C)=O)cc1[N+](=O)[O-])S(C)(=O)=O`, for which the GI50 in assay [1], in [2], in assay [3], in assay [4], in assay [18] and in assay [5] was > 100 µM (inactive) in each case. Further, the GI50 in [6], in [8], in assay [9], in [10], in assay [11] and in assay [12] was > 100 µM (inactive) throughout. The GI50 in [13], in [14], in assay [15], in assay [16] and in assay [17] was > 100 µM (inactive) throughout.
Regarding `COC(=O)n1c(=O)n(-c2ccccc2)c(=O)n1C(=O)OC`, the GI50 in assay [1], in assay [2], in assay [3], in [4], in assay [18] and in [5] was > 100 µM (inactive) in each case. Further, the GI50 in [8], in assay [9], in [10], in assay [11], in assay [12] and in assay [13] was > 100 µM (inactive) in each case. For the same compound, the GI50 in [14], in [15], in assay [16] and in [17] was > 100 µM (inactive) each time.
For the compound `O=C1CN(c2ccccc2)C(=O)CN1NCNN1CC(=O)N(c2ccccc2)CC1=O`, the GI50 in assay [1], in assay [2], in assay [3], in [4], in assay [18] and in assay [5] was > 100 µM (inactive) throughout. Also, the GI50 in [6] was > 100 µM (inactive); in [7] it was > 100 µM (inactive); in [10], > 100 µM (inactive); in assay [11] it was 58.5 µM (inactive); in [12], > 100 µM (inactive); in [13] it was > 100 µM (inactive). Besides, the GI50 in assay [14], in [16] and in [17] was > 100 µM (inactive) in each case.
For `COc1ccc(/C=c2/sc3n(c2=O)C(c2ccccc2)C2(O)CCCCC2N=3)cc1` (configuration not stated), the GI50 in assay [1], in [2], in [3], in [6], in assay [8] and in assay [9] was > 12.5 µM (inactive) each time. The GI50 in assay [10], in assay [11], in assay [12], in assay [13], in assay [14] and in assay [15] was > 12.5 µM (inactive) in each case. The GI50 in [17] was > 12.5 µM (inactive).
With `Cc1ncc([N+](=O)[O-])n1CCNC(=O)Cn1c([N+](=O)[O-])cnc1C`, the GI50 in assay [1] was > 100 µM (inactive); in assay [2], > 100 µM (inactive); in assay [3], > 100 µM (inactive); in assay [4], > 100 µM (inactive); in assay [18], 92.5 µM (inactive); in assay [6] it was > 100 µM (inactive). Besides, the GI50 in assay [8], in [10], in assay [11], in assay [12], in assay [13] and in assay [15] was > 100 µM (inactive) each time. In addition, the GI50 in assay [16] and in assay [17] was > 100 µM (inactive) in each case.
Turning to `Cc1ccc(Cc2n[nH]c(=O)n2-c2ccccc2)cc1`, the GI50 in assay [1], in assay [2], in assay [3], in [18], in assay [8] and in assay [10] was > 100 µM (inactive) in each case. Also, the GI50 is > 100 µM (inactive) in assay [11]; > 100 µM (inactive) in assay [12]; > 100 µM (inactive) in assay [13]; 36.1 µM (inactive) in assay [14]; 73.1 µM (inactive) in assay [15]; > 100 µM (inactive) in [16]. In addition, the GI50 in [17] was > 100 µM (inactive).
In the case of `CCN1CN(c2ccccc2)C2(CCN(CC3COc4ccccc4O3)CC2)C1=O` (configuration not stated), the GI50 in assay [1] is 47.9 µM (inactive); in assay [2] it was 36.6 µM (inactive); in assay [3] it was 16 µM (inactive); in assay [4], 15.7 µM (inactive); in [18], 36.6 µM (inactive); in assay [6] it was 35.6 µM (inactive). The GI50 in assay [8] is 37.9 µM (inactive); in assay [9] it was 17.9 µM (inactive); in [10], 2.28 µM (inactive); in assay [11], 40.6 µM (inactive); in assay [12], 24.3 µM (inactive); in [13], 34.7 µM (inactive). Moreover, the GI50 is 17.4 µM (inactive) in [14], 13.2 µM (inactive) in assay [15], 41.5 µM (inactive) in assay [16] and 47.8 µM (inactive) in assay [17].
For `S=c1[nH]n2c(CCCCCCCCc3nnc4sc(=S)[nH]n34)nnc2s1`, the GI50 in assay [1], in [2], in assay [3], in [4], in [18] and in assay [5] was > 100 µM (inactive) throughout. The GI50 in assay [6], in [7], in assay [8], in assay [10], in assay [11] and in assay [12] was > 100 µM (inactive) in each case. Further, the GI50 in [13], in assay [14], in assay [15], in assay [16] and in assay [17] was > 100 µM (inactive) each time.
